# Reference: patent US20190185518A9, “WARHEAD-CONTAINING PEPTIDOMIMETIC MACROCYCLES AS MODULATORS OF BFL-1” (AILERON Therapeutics, Inc., priority 2017, published 2019)
# Where two headings read alike, the source gives them in different places. Positions of bridges follow the written chain, without caps; N, C: chain ends. Non-standard residues stand in square brackets, D forms with d. Residues, ends and D or L forms follow the SMILES beside them. Phe(4-F) = N[C@@H](Cc1ccc(F)cc1)C(=O)O; R8 = C=CCCCCCC[C@@](C)(N)C(=O)O; hLeu = CC(C)CC[C@H](N)C(=O)O; S5 = C=CCCC[C@](C)(N)C(=O)O
# Assays:
# [1] = molecular target: T1, Mcl-1 (Homo sapiens, UniProt Q07820); test: Ki determination for Mcl-1 (BCL-2 family binding spectrum)
# T1 sequence (Q07820 whole entry, species assumed): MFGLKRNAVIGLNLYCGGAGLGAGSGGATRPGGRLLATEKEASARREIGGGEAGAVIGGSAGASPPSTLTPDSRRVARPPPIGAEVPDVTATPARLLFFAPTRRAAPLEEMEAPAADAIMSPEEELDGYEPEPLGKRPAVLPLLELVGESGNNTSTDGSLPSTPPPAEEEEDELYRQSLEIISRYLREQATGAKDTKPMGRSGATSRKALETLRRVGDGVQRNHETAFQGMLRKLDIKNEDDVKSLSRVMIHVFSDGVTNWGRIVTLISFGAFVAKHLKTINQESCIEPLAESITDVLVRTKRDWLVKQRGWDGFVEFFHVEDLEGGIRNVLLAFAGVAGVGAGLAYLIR
# In short: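 Competitive fluorescence polarization assay in which compounds displace a fluoresceinated peptidomimetic macrocycle tracer from Mcl-1. Affinity constants were obtained by nonlinear regression.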
# [2] = molecular target: Bcl-xL (Homo sapiens, UniProt Q07817); test: Ki determination for Bcl-xL (BCL-2 family binding spectrum)
# Bcl-xL, sequence (Q07817 whole entry, species assumed): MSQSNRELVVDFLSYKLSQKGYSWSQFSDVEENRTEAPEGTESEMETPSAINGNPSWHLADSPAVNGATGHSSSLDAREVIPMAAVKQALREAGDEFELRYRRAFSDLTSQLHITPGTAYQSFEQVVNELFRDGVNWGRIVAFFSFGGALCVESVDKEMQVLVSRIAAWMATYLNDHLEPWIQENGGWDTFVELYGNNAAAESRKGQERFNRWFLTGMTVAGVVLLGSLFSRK
# In short: (§1)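 Competitive fluorescence polarization: compounds (1 nM–1 mM) with 25 nM fluoresceinated peptidomimetic macrocycle and 50 nM protein in 140 mM NaCl, 50 mM Tris-HCl pH 7.4, 30 min at room temperature. Constants from nonlinear regression.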
# [3] = tested on: Mcl-1, Bcl-xL, Bcl-2; test: BCL-2 family selectivity profile; format: binding; settings: TABLE 8
# From the text: The binding spectrum of stapled BIM BH3 peptides were tuned for BCL-2 family selectivity. […] ABT-199 is venetoclax, and † represents values reported in the literature.
# [4] = tested on: A375-P melanoma cells; test: Cell viability (CellTiter-Glo), A375-P; format: cell-based; settings: A375-P; 40 μM, 5% serum
# Method: (§2) Cancer cells were cultured using a standard culture medium containing 10% fetal bovine serum (FBS) and penicillin-streptomycin (A375P: DMEM; SK-MEL-2, SK-MEL-28: EMEM). Cells were plated in 96-well plates (5×10^3 cells per well) and, after overnight incubation, treated with the indicated concentrations of Stapled Peptides in the corresponding medium supplemented with 5% FBS for the indicated durations. Cell viability and caspase-3/7 activation was measured using CellTiter-Glo and Caspase-Glo 3/7 chemiluminescence reagents (Promega), respectively. Luminescence was detected by a microplate reader (Spectramax M5, Molecular Devices).
# [5] = tested on: SK-MEL-2 melanoma cells; test: Cell viability (CellTiter-Glo), SK-MEL-2; format: cell-based; settings: SK-MEL-2; 40 μM, 5% serum
# Method: as §2
# [6] = tested on: SK-MEL-28 melanoma cells; test: Cell viability (CellTiter-Glo), SK-MEL-28; format: cell-based; settings: SK-MEL-28; 40 μM, 5% serum
# Method: as §2
# [7] = tested on: A375-P melanoma cells; test: Caspase-3/7 activation (Caspase-Glo 3/7), A375-P; format: cell-based; settings: A375-P; control BIM SAHBA1 40 μM, 5% serum
# Method: as §2
# [8] = tested on: SK-MEL-2 melanoma cells; test: Caspase-3/7 activation (Caspase-Glo 3/7), SK-MEL-2; format: cell-based; settings: SK-MEL-2; control BIM SAHBA1 40 μM, 5% serum
# Method: as §2
# [9] = tested on: SK-MEL-28 melanoma cells; test: Caspase-3/7 activation (Caspase-Glo 3/7), SK-MEL-28; format: cell-based; settings: SK-MEL-28; control BIM SAHBA1 40 μM, 5% serum
# Method: as §2
# [10] = tested on: BAX-BAK^wt/wt MEF cells; test: On-mechanism cytotoxic activity, BAX-BAK wt/wt MEF cells; format: cell-based; settings: 5% serum
# [11] = tested on: BAX-BAK^−/− double knock outs (DKO) MEF cells; test: On-mechanism cytotoxic activity, BAX-BAK-/- double knock out MEF cells; format: cell-based; settings: 5% serum
# [12] = tested on: released LDH (damaged cells); test: Lactate dehydrogenase cytotoxicity colorimetric assay; format: cell-based; settings: 5% serum
# From the text: When cell membranes are compromised or damaged, lactate dehydrogenase (LDH), a soluble yet stable enzyme found inside every living cell, is released into the surrounding extracellular space. The presence of LDH in the culture medium can be used as a cell death marker. The relative amounts of live and dead cells within the medium can then be quantified by measuring the amount of released LDH using a colorimetric or fluorimetric LDH cytotoxicity assay. When using an LDH colorimetric assay, the amount of LDH released in the surrounding environment is measured with an enzymatic reaction that converts iodonitrotetrazolium (INT) into red-colored formazan. When LDH is present in the cell culture, the LDH reduces NAD^+ to NADH and H^+ through the oxidation of lactate to pyruvate. Afterward, the catalyst (diaphorase) then transfers H/H^+ from NADH^+H^+ to the trazolium salt INT to form the red-colored formazan salt. The amount of color produced is measured at 490 nm by standard spectroscopy, and is proportional to the amount of damaged cells in the culture.
# [13] = tested on: ABT-199 resistant Burkitt lymphoma Raji cells; test: WST-1 anti-proliferative activity in Raji cells; format: cell-based, Human; settings: for IC50: TABLE 9, Raji cell proliferation
# From the text: WST-1 is a cell proliferation reagent that is used in colorimetric assays designed to measure the relative proliferation rates of cells in culture. The assay is based on the conversion of the tetrazolium salt WST-1 into a colored dye by mitochondrial dehydrogenase enzymes. The soluble salt is released into the media. Within a given time period, the reaction produces a color change that is directly proportional to the amount of mitochondrial dehydrogenase in a culture. The WST-1 assay measures the net metabolic activity of cells.
# [14] = tested on: MCL-1 driven Raji cells
# [15] = molecular target: T1, Mcl-1; settings: cited from earlier work
# [16] = tested on: MCL-1 driven Raji cells; test: cells; settings: Homo sapiens, read-out: EC50 (anti-proliferative effects)
# [17] = molecular target: T2, MCL-1/BAK protein-protein interaction (Homo sapiens, UniProt Q07820); test: MCL-1 displacement study (BAK FRET signal); format: cell-based; settings: 5 μM or 10 μM
# T2 construct: host or cells: Raji
# T2 sequence (Q07820 whole entry): as the sequence (Q07820 whole entry, species assumed) above
# Method: BIM peptidomimetic macrocycles were tested for displacement of MCL-1 from a BAK fluorescence resonance energy transfer (FRET) peptide.
# FIG. 19 compares normalized FRET signals of samples to determine the samples' effects in disrupting MCL-1/BAK protein-protein interactions.
# [18] = tested on: Mcl-1, Bcl-xL, Bcl-2; settings: TABLE 8; † reported in the literature; cited from earlier work
# [19] = molecular target: Bcl-2 (Homo sapiens, UniProt P10415); test: Ki determination for Bcl-2 (BCL-2 family binding spectrum); settings: read-out: Ki BCL-2
# Bcl-2, sequence (P10415 whole entry, species assumed): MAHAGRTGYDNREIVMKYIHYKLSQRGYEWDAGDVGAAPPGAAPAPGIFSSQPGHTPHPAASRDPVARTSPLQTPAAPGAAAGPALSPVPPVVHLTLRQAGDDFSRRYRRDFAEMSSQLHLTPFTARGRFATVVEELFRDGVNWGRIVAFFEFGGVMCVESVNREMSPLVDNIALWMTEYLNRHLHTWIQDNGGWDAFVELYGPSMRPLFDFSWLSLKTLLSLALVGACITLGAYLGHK
# In short: as §1
# [20] = tested on: Human Raji cells; format: cell-based; settings: Raji Cell Viability, 48 h, 5% serum
# Method: BIM peptidomimetic macrocycles were tested for cell killing at various concentrations. Human Raji cells were treated with increasing doses of peptidomimetic macrocycles corresponding to Aileron peptide A (FIGS. 1 and 2), Aileron peptide B (FIGS. 1-3), and Aileron peptide C (FIGS. 3 and 4). An […] was calculated for each dose of the peptidomimetic macrocycle from a non-linear fit of response vs dose (GraphPad Prism).
smiles,measurement,setting,value
CC[C@H](C)[C@H](NC(C)=O)C(=O)N[C@@H](Cc1c[nH]c2ccccc12)C(=O)N[C@H](C(=O)N[C@@H](C)C(=O)N[C@@H](CCC(N)=O)C(=O)N[C@@H](C)C(=O)N[C@@H](CC(C)C)C(=O)N[C@@H](CCCNC(=N)N)C(=O)N[C@]1(C)CCCCCCC=CCCC[C@@](C)(C(=O)N[C@@H](Cc2ccc(O)cc2)C(=O)N[C@@H](Cc2ccc(F)cc2)C(=O)N[C@@H](C)C(N)=O)NC(=O)[C@H](CC(N)=O)NC(=O)[C@H](Cc2ccccc2)NC(=O)[C@H](C)NC(=O)[C@H](CC(=O)O)NC(=O)CNC(=O)[C@H](CCC(C)C)NC1=O)[C@@H](C)CC [Peptide #16] (Ac-IWIAQALR[R8][hLeu]GDAFN[S5]Y[Phe(4-F)]A-NH2; staple 9-16),Ki,"[1]; TABLE 8, read-out: Mcl-1 Ki",27 nM
same,Ki,"[2]; TABLE 8, read-out: Bcl-xL Ki",13 nM
same,Profile,[3],Pan-selective
same,% cell viability,[4],decreased the % viability of the cells
same,% cell viability,[5],decreased the % viability of the cells
same,% cell viability,[6],decreased the % viability of the cells
same,Relative caspase-3/7 activation,[7],higher levels of caspase-3/7 activation than the BIM SAHBA1 control
same,Relative caspase-3/7 activation,[8],higher levels of caspase-3/7 activation than the BIM SAHBA1 control
same,Relative caspase-3/7 activation,[9],higher levels of caspase-3/7 activation than the BIM SAHBA1 control
same,on-mechanism cytotoxic activity,[10],exhibited on-mechanism cytotoxic activity
same,on-mechanism cytotoxic activity,[11],did not exhibit on-mechanism cytotoxic activity
same,off-target cytotoxicity in the LDH assay,[12],No off-target cytotoxicity was observed
same,potency relative to BIM SAHBA1,[13]; Raji cell line,ten times more potent than BIM SAHBA1
same,IC50,[13],2000 nM
same,EC50,[14],1200 to 1600 nM
same,anti-proliferative effects in combination,"[14]; Raji cells, combined with fixed doses of the other agent (peptide #16 0.95-3.8 μM or ABT-199 1.9-3.8 μM)",enhanced
same,Raji cell proliferation (fraction of control),"[14]; increasing doses, combination study",decreased
"CC1(C)CCC(CN2CCN(c3ccc(C(=O)NS(=O)(=O)c4ccc(NCC5CCOCC5)c([N+](=O)[O-])c4)c(Oc4cnc5[nH]ccc5c4)c3)CC2)=C(c2ccc(Cl)cc2)C1 [ABT-199, venetoclax]",IC50,[13]; Homo sapiens,3100 nM
same,Ki,"[15]; TABLE 6, † values reported in the literature",> 444 nM
same,Ki,"[15]; TABLE 8, † reported in the literature",> 444 nM
same,EC50,[16],3700 to 4900 nM
"CC1(C)CCC(c2ccc(Cl)cc2)=C(CN2CCN(c3ccc(C(=O)NS(=O)(=O)c4ccc(N[C@H](CCN5CCOCC5)CSc5ccccc5)c(S(=O)(=O)C(F)(F)F)c4)cc3)CC2)C1 [ABT-263, navitoclax, reference compound]",Profile,[3],Bcl-xL/Bcl-2 selective
same,disrupting the MCL-1/BAK protein-protein interaction (normalized FRET signal),[17],did not disrupt
same,Profile,[18],Bcl-xL/Bcl-2 selective
CC[C@H](C)[C@H](NC(C)=O)C(=O)N[C@@H](Cc1c[nH]c2ccccc12)C(=O)N[C@H](C(=O)N[C@@H](C)C(=O)N[C@@H](CCC(N)=O)C(=O)N[C@@H](C)C(=O)N[C@@H](CC(C)C)C(=O)N[C@@H](CCCNC(=N)N)C(=O)N[C@]1(C)CCCCCCC=CCCC[C@@](C)(C(=O)N[C@@H](Cc2ccc(O)cc2)C(=O)N[C@@H](Cc2ccc(O)cc2)C(=O)N[C@@H](C)C(N)=O)NC(=O)[C@H](CC(N)=O)NC(=O)[C@H](Cc2ccccc2)NC(=O)[C@H](CCC(=O)O)NC(=O)[C@H](CC(=O)O)NC(=O)CNC(=O)[C@H]([C@@H](C)CC)NC1=O)[C@@H](C)CC [compound 1649] (Ac-IWIAQALR[R8]IGDEFN[S5]YYA-NH2; staple 9-16),Ki,[1]; read-out: Ki MCL-1,1.8 nM
same,Ki,[2]; read-out: Ki BCL-XL,1.4 nM
same,Ki,[19],3.2 nM
same,EC50,[20],> 40 µM
